Data: patent publication US20020174454A1, “Overexpression of ABI5 in plants to prevent precocious seed germination and to confer resistance to drought and high salt” (priority 2001, published 2002)

Key:
Format in all cases: in vivo, Arabidopsis thaliana
[1] = system: Ws/35S::HA-ABI5 transgenic plants; experiment: Germination and growth of ABI5 overexpressing transgenic seeds on ABA
Description: To determine whether the presence of ABI5 is sufficient to arrest growth in the absence of ABA, we expressed the ABI5 gene from a constitutive promoter. Transgenic Arabidopsis lines expressing ABI5 under the control of the cauliflower mosaic virus 35S promoter in WT Ws or abi5-4 backgrounds were generated and several independent lines expressing various levels of ABI5 were obtained. WT Ws and Ws/35S::HA-ABI5 transgenic plants were grown for 5 days with 0, 0.5 and 5 μM ABA. In the transgenic line shown in FIG. 5A, ABI5 levels in absence of ABA were at least five fold higher than that in WT plants grown in the presence of ABA. Transgenic seeds were arrested in development at 0.5 μM ABA and only started to germinate after 5 days (FIG. 5A). WT Ws seeds were insensitive to 0.5 μM ABA and were fully germinated in 5 μM ABA after 5 days (FIG. 5A). Despite the accumulation of ABI5, the lines germinated and developed normally in the absence of ABA.
We next investigated the effect of ABA in ABI5 overexpressing lines. Addition of 5 μM ABA severely delayed germination by at least 7 days and blocked mature embryo growth in several lines. To measure more precisely the ABA response, we plated WT/35S::HA-ABI5 transgenic seeds on growth media containing different ABA concentrations. Treatment of WT/35S::HA-ABI5 plants with 0.5 μM ABA was sufficient to phenocopy the response of WT plants exposed to 5 μM ABA (FIG. 5A).

[2] = system: abi5-4 mutants; experiment: ABA inhibition of root growth, abi5-4 mutants
Description: (§1) The following methods were used in obtaining the further results described below. WT Ws seedlings and transgenic Ws seedlings carrying 35S::HA -ABI5 (WT/35S::HA -ABI5, T3 generation) were germinated and grown for 5 days on MS medium without ABA. Seedlings were then transferred to plates containing 5 μM ABA, and subsequent root growth was scored after 5 days. Values were expressed as the average ±SD of 15 seedlings. For water loss measurement, young rosette leaves at the same developmental stage were excised from WT Ws, WT/35S::HA-ABI5 and abi1 plants and weighed at the different times indicated (n=3).
(§2) At 0.5 μM ABA, WT plants grew normally (FIG. 5A). Inhibition of root growth by ABA was unaffected in abi5-4 mutants but was exacerbated in ABI5-overexpressing lines (FIG. 5B). Five-day old seedlings grown in the absence of ABA were transferred to 0, 5 and 10 μM ABA plates for 5 days. The root length of ABA-treated seedlings was expressed as a percentage of non-treated controls (n=15).

[3] = system: abi5-4 plants; experiment: Survival after drought treatment on absorbing papers, abi5-4 plants treated with ABA for 10 days; conditions: abi5, +ABA 5 μM for 10 days, n = 30
Description: (§3) Seeds of Arabidopsis thaliana, ecotype Wassilewskija, Columbia or Landsberg erecta were surface sterilized in 50% commercial bleach (Clorox) and 0.05% Tween 20 as described (Lopez-Molina and Chua, 2000) and then plated on Murashige and Skoog (MS) medium (Murashige and Skoog, 1962) containing 0.8% (w/v) Bacto-Agar (Difco Laboratories). Plates were routinely kept for 3 days in the dark at 4° C. to break dormancy (stratification) and transferred thereafter to a tissue culture room under constant white fluorescent light (27 μmol.m^−2.s^−1) at 22° C. Seeds of abi1, abi3-I and abi4 were obtained from the Nottingham Arabidopsis Stock Center (NASC). For ABA treatments, seedlings were transferred to plates supplemented with ABA (mixed isomers, Sigma A7393) which was dissolved in methanol. Control plates contained equal amounts of methanol.
(§4) To test this hypothesis, we broke embryo dormancy of WT and abi5-4 seeds in the absence of ABA for 24 hours. Seeds were then transferred for an additional 10 days to media with or without ABA. After 10 days, ABA-treated WT mature embryos had germinated but were arrested in growth as described above, whereas abi5-4 or non-treated WT Ws plants were green and continued to grow. Plants were then water-stressed for different time intervals on absorbent papers before being allowed to recover in normal medium. […] This is in sharp contrast with abi5-4 embryos, none of which survived. abi5-4 plants were able to survive better with than without ABA (Table 1), although not to the same extent as WT. […] Indeed, abi5-4 plants grow more slowly on 5 μM ABA than on medium lacking it, whereas the growth of WT plants is completely arrested. This developmental difference may be responsible for the higher resistance to water depletion of ABA-treated abi5-4 plants (Table 1).

[4] = system: WT Ws seeds; experiment: Germination and early growth arrest of WT seeds on ABA plates
Description: as §3
Given the ABA-insensitivity of abi5-4 mutant and the timing of ABI5 induction upon ABA exposure, we studied the effect of ABA on growth during early development. […] Virtually all WT seeds were fully germinated on 5 μM ABA only 5 days post-stratification (FIG. 3C). Similar results were obtained with different Ws seed batches and for the ecotypes Landsberg and Columbia. At 10 μM ABA, complete germination was observed 8 days post-stratification (FIG. 3D). […] ABI5 levels remained constant as long as ABA was present. […] Upon ABA removal, all of the embryos started to green and resumed normal growth.

[5] = system: HA-ABI5; experiment: HA-ABI5 accumulation in WT/35S::HA-ABI5 transgenic lines by immunoblot; conditions: WT/35S::HA-ABI5 lines, anti-HA immunoblot
Description: Given the strong ABA-dependent ABI5 protein accumulation, we were interested to determine whether ABI5 protein stability is altered in the presence of ABA. For this purpose we generated WT/35S::HA-ABI5 transgenic lines constitutively expressing HA-ABI5 transcript. DNA manipulations were performed according to standard methods (Sambrook et al., 1989). 35S constructs were generated using a binary vector (Kost et al., 1998). Transgenic Arabidopsis lines (Ws ecotype) were generated using the Agrobacterium tumefaciens vacuum-infiltration method (Bechtold and Pelletier, 1998). Seeds (T1) from infiltrated plants were plated on MS medium containing 10 mg/L gluphosinate ammonium (Crescent Chemical) and 100 mg/L cefotaxime (Sigma).
In these lines, HA-ABI5 accumulation is 5-10 fold higher in the presence of ABA as shown by immunoblot analysis using anti-HA antibodies. 8-day old Ws/35S::HA-ABI5 seedlings (T3 generation) were transferred to MS medium with or without 50 μM ABA. Proteins were extracted at 0 hours, 10 minutes, 1 hour, 2 hours and 30 minutes, and 6 hours and ABI5 protein levels were monitored by Western blot analysis using antibodies to HA (FIG. 2A; each lane contains 5 μg protein). […] Equal amounts (5 μg) of protein were loaded on a 10% SDS-polyacrylamide (Novex) gel and analyzed by Western blots using rabbit antibody to HA (1:3,000; Santa Cruz).

[6] = system: Ws/35S::HA-ABI5 transgenic lines; experiment: ABA inhibition of root growth, ABI5-overexpressing lines; conditions: 5-day old seedlings, 5 and 10 μM ABA for 5 days, n=15
Description: as §1, §2

[7] = system: WT Ws plants; experiment: Survival after drought treatment on absorbing papers, WT Ws plants treated with ABA for 10 days; conditions: +ABA 5 μM for 10 days, n = 30
Description: as §3, §4

[8] = system: ABI5; experiment: ABI5 protein accumulation in WT Ws seeds/seedlings by Western blot
Text: RNA extraction and Northern blot hybridizations were done as described (Lopez-Molina and Chua, 2000). A DNA fragment encoding the ABI5 open reading frame was cloned into pET28a (Novagen) and the recombinant protein was induced and purified using a commercial kit according to the manufacturer's instructions (His trap, Amersham Pharmacia). Polyclonal anti-ABI5 antiserum was obtained from rabbits immunized with His-tagged ABI5. Standard methods using His-ABI5 coupled to a CNBr activated Sepharose 6-MB column (Amersham Pharmacia) were used to affinity purify specific ABI5 antibody from sera.
Plant protein extracts were resolved under reducing conditions using 10% SDS-polyacrylamide gels (Laemmli, 1970). […]
ABA concentrations (3-10 μM) that discriminate between abi5-4 mutants and WT under normal growth conditions were selected. […] Indeed, by immunoblot analysis, the ABI5 protein with a molecular mass of about 50 Kd was detected two days after stratification in the presence of ABA. […]
To determine whether the observed ABA-dependent accumulation of ABI5 levels was restricted to early development, we stratified WT seeds in the absence of ABA and then transferred the seedlings at different time intervals to a medium supplemented with 5 μM ABA (FIG. 3A). […] ABI5 levels were monitored by Western blot analysis. […] ABI5 levels were monitored by Western blot analyses as described for FIG. 1 (FIG. 3B).

CC1=CC(=O)CC(C)(C)[C@@]1(O)/C=C/C(C)=C\C(=O)O [ABA, Abscisic acid]
delay of germination ([1]; ABI5 overexpressing lines, 5 μM ABA): at least 7 days | ABA concentration sufficient to phenocopy the response of WT plants exposed to 5 μM ABA ([1]; WT/35S::HA-ABI5 plants): 0.5 µM | time after which arrested transgenic seeds started to germinate ([1]; Ws/35S::HA-ABI5 seeds, 0.5 μM ABA): 5 days | inhibition of root growth by ABA [2]: unaffected | Percentage of survival after different period of drought treatment (hours) ([3]; 0 hours drought): 100% | Percentage of survival after different period of drought treatment (hours) ([3]; 8 hours drought): 97% | Percentage of survival after different period of drought treatment (hours) ([3]; 12 hours drought): 55% | Percentage of survival after different period of drought treatment (hours) ([3]; 24 hours drought): 20% | Percentage of survival after different period of drought treatment (hours) ([3]; 36 hours drought): 0% | response of WT Ws seeds to ABA ([4]; 0.5 μM ABA, 5 days): insensitive | time after which all seeds fully germinate in the presence of ABA ([4]; ABA concentration range 3 to 10 μM): 10 days | embryos remaining white and quiescent, not growing ([4]; WT germinated embryos kept on ABA for at least a month, n=200): 95%±3 | time at which virtually all seeds were fully germinated ([4]; WT seeds, 5 μM ABA): 5 days post-stratification | time at which complete germination was observed ([4]; WT seeds, 10 μM ABA): 8 days post-stratification | HA-ABI5 accumulation higher in the presence of ABA [5]: 5-10 fold | inhibition of root growth by ABA compared with WT Ws [6]: exacerbated | Percentage of survival after different period of drought treatment (hours) ([7]; 0 hours drought): 100% | Percentage of survival after different period of drought treatment (hours) ([7]; 8 hours drought): 100% | Percentage of survival after different period of drought treatment (hours) ([7]; 12 hours drought): 98% | Percentage of survival after different period of drought treatment (hours) ([7]; 24 hours drought): 90% | Percentage of survival after different period of drought treatment (hours) ([7]; 36 hours drought): 84% | developmental window of efficient induction of ABI5 accumulation ([8]; WT Ws transferred to 5 μM ABA plates): 48-60 hours post-stratification | increase of ABI5 protein level in the presence of ABA ([8]; WT Ws, 5 μM ABA, first two days post-stratification): at least 10 fold
